Data: PubChem BioAssay (NCI)
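Briefly, cells in 96-well plates were exposed to five compound concentrations for 48 h, and endpoints were estimated by linear interpolation. GI50: concentration for 50% inhibition of growth. At the TGI there is no net growth.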

What was measured:
Assay in all cases: NCI anticancer screen, dose series, 48 h
786-0 renal = test system: 786-0 renal
A498 renal = test system: A498 renal
A549 NSCLC = test system: A549 NSCLC
ACHN renal = test system: ACHN renal
BT-549 breast = test system: BT-549 breast
CAKI-1 renal = test system: CAKI-1 renal
CCRF-CEM leukemia = test system: CCRF-CEM leukemia
COLO 205 colon = test system: COLO 205 colon
DU-145 prostate = test system: DU-145 prostate
EKVX NSCLC = test system: EKVX NSCLC
HCT-116 colon = test system: HCT-116 colon
HCT-15 colon = test system: HCT-15 colon
HOP-62 NSCLC = test system: HOP-62 NSCLC
HS 578T breast = test system: HS 578T breast
HT29 colon = test system: HT29 colon
IGROV1 ovarian = test system: IGROV1 ovarian
KM12 colon = test system: KM12 colon
LOX IMVI melanoma = test system: LOX IMVI melanoma
M14 melanoma = test system: M14 melanoma
MCF7 breast = test system: MCF7 breast
MDA-MB-231 breast = test system: MDA-MB-231 breast
MDA-MB-435 = test system: MDA-MB-435
MOLT-4 leukemia = test system: MOLT-4 leukemia
NCI-H226 lung = test system: NCI-H226 lung
NCI-H23 lung = test system: NCI-H23 lung
NCI-H460 lung = test system: NCI-H460 lung
NCI-H522 lung = test system: NCI-H522 lung
OVCAR-3 ovarian = test system: OVCAR-3 ovarian
OVCAR-5 ovarian = test system: OVCAR-5 ovarian
OVCAR-8 ovarian = test system: OVCAR-8 ovarian
PC-3 prostate = test system: PC-3 prostate
RPMI-8226 leukemia = test system: RPMI-8226 leukemia
RXF 393 renal = test system: RXF 393 renal
SF-268 CNS = test system: SF-268 CNS
SF-295 CNS = test system: SF-295 CNS
SF-539 CNS = test system: SF-539 CNS
SK-MEL-2 melanoma = test system: SK-MEL-2 melanoma
SK-MEL-28 melanoma = test system: SK-MEL-28 melanoma
SK-MEL-5 melanoma = test system: SK-MEL-5 melanoma
SK-OV-3 ovarian = test system: SK-OV-3 ovarian
SN12C renal = test system: SN12C renal
SNB-19 CNS = test system: SNB-19 CNS
SW-620 colon = test system: SW-620 colon
T-47D breast = test system: T-47D breast
U251 CNS = test system: U251 CNS
UACC-257 melanoma = test system: UACC-257 melanoma
UACC-62 melanoma = test system: UACC-62 melanoma
UO-31 renal = test system: UO-31 renal
HCC-2998 colon = test system: HCC-2998 colon
HOP-92 NSCLC = test system: HOP-92 NSCLC
K-562 leukemia = test system: K-562 leukemia
MALME-3M melanoma = test system: MALME-3M melanoma
NCI/ADR-RES ovarian = test system: NCI/ADR-RES ovarian
SNB-75 CNS = test system: SNB-75 CNS

## O=C1c2ccccc2-c2c1c1ccccc1c(=O)n2CCNCCCNCCn1c2c(c3ccccc3c1=O)C(=O)c1ccccc1-2
786-0 renal
  GI50: 0.0539 µM
  TGI: 0.326 µM
A498 renal
  GI50: 0.432 µM
  TGI: 3.33 µM
A549 NSCLC
  GI50: 0.0521 µM
  TGI: 0.662 µM
ACHN renal
  GI50: 0.00672 µM
  TGI: 0.699 µM
BT-549 breast
  GI50: 0.629 µM
  TGI: 1.9 µM
CAKI-1 renal
  GI50: 0.563 µM
  TGI: 1.24 µM
CCRF-CEM leukemia
  GI50: < 0.005 µM
  TGI: 1.43 µM
COLO 205 colon
  GI50: 0.637 µM
  TGI: 1.59 µM
DU-145 prostate
  GI50: 0.0736 µM
  TGI: 0.739 µM
EKVX NSCLC
  GI50: 1.07 µM
  TGI: 3.07 µM
HCT-116 colon
  GI50: < 0.005 µM
  TGI: 0.262 µM
HCT-15 colon
  GI50: 0.0221 µM
  TGI: 0.334 µM
HOP-62 NSCLC
  GI50: 0.0723 µM
  TGI: 1.16 µM
HS 578T breast
  GI50: 0.738 µM
  TGI: 2.74 µM
HT29 colon
  GI50: 0.051 µM
IGROV1 ovarian
  GI50: 1.19 µM
  TGI: > 50 µM
KM12 colon
  GI50: 0.0193 µM
LOX IMVI melanoma
  GI50: 0.0461 µM
  TGI: 0.331 µM
M14 melanoma
  GI50: 0.257 µM
  TGI: 0.536 µM
MCF7 breast
  GI50: 0.0885 µM
MDA-MB-231 breast
  GI50: 0.161 µM
  TGI: 0.548 µM
MDA-MB-435
  GI50: 0.115 µM
  TGI: 1.1 µM
MOLT-4 leukemia
  GI50: < 0.005 µM
  TGI: > 50 µM
NCI-H226 lung
  GI50: 0.64 µM
  TGI: 1.66 µM
NCI-H23 lung
  GI50: 0.249 µM
  TGI: 1.13 µM
NCI-H460 lung
  GI50: < 0.005 µM
  TGI: > 50 µM
NCI-H522 lung
  GI50: 2.91 µM
  TGI: 14.1 µM
OVCAR-3 ovarian
  GI50: 0.362 µM
  TGI: 1.12 µM
OVCAR-5 ovarian
  GI50: 0.42 µM
  TGI: 1.1 µM
OVCAR-8 ovarian
  GI50: 0.0101 µM
  TGI: 0.361 µM
PC-3 prostate
  GI50: 0.293 µM
  TGI: 1.24 µM
RPMI-8226 leukemia
  GI50: 0.00933 µM
  TGI: 0.259 µM
RXF 393 renal
  GI50: < 0.005 µM
  TGI: 0.577 µM
SF-268 CNS
  GI50: 0.156 µM
  TGI: 6.81 µM
SF-295 CNS
  GI50: 0.00771 µM
  TGI: 0.368 µM
SF-539 CNS
  GI50: 0.0848 µM
  TGI: 1.36 µM
SK-MEL-2 melanoma
  GI50: 0.514 µM
  TGI: 2.2 µM
SK-MEL-28 melanoma
  GI50: 0.0667 µM
  TGI: > 50 µM
SK-MEL-5 melanoma
  GI50: 1.75 µM
  TGI: 7.9 µM
SK-OV-3 ovarian
  GI50: 1.21 µM
  TGI: 4.83 µM
SN12C renal
  GI50: 0.011 µM
  TGI: 0.436 µM
SNB-19 CNS
  GI50: 0.389 µM
  TGI: > 50 µM
SW-620 colon
  GI50: < 0.005 µM
  TGI: 0.58 µM
T-47D breast
  GI50: 0.719 µM
  TGI: 2.12 µM
U251 CNS
  GI50: 0.146 µM
  TGI: 0.371 µM
UACC-257 melanoma
  GI50: 1.17 µM
  TGI: 2.91 µM
UACC-62 melanoma
  GI50: 0.362 µM
  TGI: 1.16 µM
UO-31 renal
  GI50: 0.221 µM
  TGI: 1 µM

## COC(=O)NC/C=C\c1nc(CC/C=C\C(=O)OC2CC3CC(=O)O[C@@H](/C=C/CC(C)C)C[C@@H]4CCC(C)C(C[C@@H](OC)CC(C2)O3)O4)co1 (stereo partly drawn)
786-0 renal
  GI50: < 0.01 µM
  TGI: 39.9 µM
ACHN renal
  GI50: < 0.01 µM
  TGI: > 100 µM
BT-549 breast
  GI50: 9.93 µM
  TGI: > 100 µM
CAKI-1 renal
  GI50: < 0.01 µM
  TGI: 70.6 µM
COLO 205 colon
  GI50: < 0.01 µM
  TGI: 98.4 µM
DU-145 prostate
  GI50: 4.59 µM
  TGI: > 100 µM
EKVX NSCLC
  GI50: < 0.01 µM
  TGI: > 100 µM
HCC-2998 colon
  GI50: < 0.01 µM
  TGI: 19 µM
HCT-116 colon
  GI50: < 0.01 µM
  TGI: 57.5 µM
HCT-15 colon
  GI50: < 0.01 µM
  TGI: 20.7 µM
HOP-62 NSCLC
  GI50: < 0.01 µM
  TGI: 79 µM
HOP-92 NSCLC
  GI50: < 0.01 µM
  TGI: 2.38 µM
HS 578T breast
  GI50: 32.8 µM
  TGI: > 100 µM
HT29 colon
  GI50: 7.63 µM
  TGI: > 100 µM
K-562 leukemia
  GI50: < 0.01 µM
  TGI: 12.2 µM
KM12 colon
  GI50: 2.67 µM
  TGI: > 100 µM
LOX IMVI melanoma
  GI50: 0.091 µM
  TGI: 61.9 µM
M14 melanoma
  GI50: 7.36 µM
  TGI: > 100 µM
MALME-3M melanoma
  GI50: 25.5 µM
  TGI: 93.4 µM
MCF7 breast
  GI50: < 0.01 µM
  TGI: > 100 µM
MDA-MB-231 breast
  GI50: 4.43 µM
  TGI: 47.6 µM
MDA-MB-435
  GI50: < 0.01 µM
  TGI: 50.1 µM
NCI-H226 lung
  GI50: 24.4 µM
  TGI: > 100 µM
NCI-H23 lung
  GI50: < 0.01 µM
  TGI: > 100 µM
NCI-H460 lung
  GI50: < 0.01 µM
  TGI: > 100 µM
NCI-H522 lung
  GI50: < 0.01 µM
  TGI: 87.7 µM
NCI/ADR-RES ovarian
  GI50: 38.3 µM
  TGI: > 100 µM
OVCAR-5 ovarian
  GI50: < 0.01 µM
  TGI: > 100 µM
OVCAR-8 ovarian
  GI50: 53 µM
  TGI: > 100 µM
PC-3 prostate
  GI50: < 0.01 µM
  TGI: > 100 µM
SF-268 CNS
  GI50: < 0.01 µM
  TGI: 84 µM
SF-295 CNS
  GI50: < 0.01 µM
  TGI: 73.8 µM
SF-539 CNS
  GI50: < 0.01 µM
  TGI: 38.3 µM
SK-MEL-2 melanoma
  GI50: 12.8 µM
  TGI: 94.1 µM
SK-MEL-28 melanoma
  GI50: 26.5 µM
  TGI: > 100 µM
SK-MEL-5 melanoma
  GI50: < 0.01 µM
  TGI: 19 µM
SK-OV-3 ovarian
  GI50: > 100 µM
  TGI: > 100 µM
SNB-19 CNS
  GI50: 34.4 µM
  TGI: > 100 µM
SNB-75 CNS
  GI50: > 100 µM
  TGI: > 100 µM
SW-620 colon
  GI50: < 0.01 µM
  TGI: > 100 µM
T-47D breast
  GI50: 45.7 µM
  TGI: > 100 µM
U251 CNS
  GI50: < 0.01 µM
  TGI: 72.4 µM
UACC-257 melanoma
  GI50: > 100 µM
  TGI: > 100 µM
UACC-62 melanoma
  GI50: 0.412 µM
  TGI: 25.6 µM
UO-31 renal
  GI50: 2.46 µM
  TGI: 74.7 µM
